In article PMC6934184, “Selective DNA-PKcs inhibition extends the therapeutic index of localized radiotherapy and chemotherapy” (The Journal of Clinical Investigation, 2019):

Target: T1, NUAK2 (Homo sapiens, UniProt Q9H093)
T1 construct: purchased Thermo Fisher Scientific (Life Technologies) SelectScreen
Assay: SelectScreen LanthaScreen
Format: binding
Settings: 1 µM
Experimental: The in vitro kinase selectivity of NU5455 was determined using the SelectScreen Broad Assay Panel (Thermo Fisher Scientific) involving activity and binding assays (Supplemental Table 1). […] Class IA PI3Ks were measured using the p85α subunit.
Kinase [ATP] % Assay Kinase [ATP] % Assay Kinase [ATP] % Assay Kinase [ATP] % Assay […]
NEK2 Km app 17.8 Z CSNK1G3 (CK1 gamma 3) Km app 4.2 Z NUAK2 n/a 1.0 L KIT T670E n/a -2.8 L […]
SGK (SGK1) Km app 8.5 Z MAP4K2 (GCK) Km app 2.7 Z TLK2 n/a -0.3 L STK38 (NDR) n/a -5.9 L
MERTK (cMER) Km app 8.3 Z CDK2/cyclin A Km app 2.7 Z TGFBR1 (ALK5) n/a -0.4 L MATK (HYL) Km app -6.3 Z
FYN Km app 8.3 Z EPHA1 Km app 2.7 Z CLK3 Km app -0.5 Z ABL1 E255K Km app -6.6 Z
TEC n/a 8.1 L CDK2/cyclin E1 n/a 2.7 L MAP3K14 (NIK) n/a -0.5 L STK17A (DRAK1) n/a -6.6 L
KIT V654A n/a 8.1 L TESK2 n/a 2.7 L AKT3 (PKB gamma) Km app -0.5 Z JAK2 JH1 JH2 Km app -6.7 Z
ROS1 Km app 8.0 Z SPHK1 Km app 2.7 A MAP3K9 (MLK1) Km app -0.5 Z PRKACB (PRKAC beta) n/a -6.8 L
FGFR3 K650E Km app 7.9 Z AMPK A2/B1/G1 Km app 2.6 Z IKBKB (IKK beta) Km app -0.6 Z PDGFRA (PDGFR alpha) Km app -6.8 Z
RAF1 (cRAF) Y340D Y341D 100 7.9 Z DYRK3 Km app 2.6 Z CAMK2A (CaMKII alpha) Km app -0.6 Z NEK9 Km app -7.2 Z
PI4KA (PI4K alpha) 10 7.8 A CSNK1D (CK1 delta) Km app 2.6 Z PRKCB1 (PKC beta I) Km app -0.7 Z PDK1 Km app -7.3 Z
HIPK2 Km app 7.8 Z ACVR2A n/a 2.5 L TTK n/a -0.7 L RPS6KB1 (p70S6K) Km app -7.8 Z […]

T1 sequence (Q9H093 whole entry): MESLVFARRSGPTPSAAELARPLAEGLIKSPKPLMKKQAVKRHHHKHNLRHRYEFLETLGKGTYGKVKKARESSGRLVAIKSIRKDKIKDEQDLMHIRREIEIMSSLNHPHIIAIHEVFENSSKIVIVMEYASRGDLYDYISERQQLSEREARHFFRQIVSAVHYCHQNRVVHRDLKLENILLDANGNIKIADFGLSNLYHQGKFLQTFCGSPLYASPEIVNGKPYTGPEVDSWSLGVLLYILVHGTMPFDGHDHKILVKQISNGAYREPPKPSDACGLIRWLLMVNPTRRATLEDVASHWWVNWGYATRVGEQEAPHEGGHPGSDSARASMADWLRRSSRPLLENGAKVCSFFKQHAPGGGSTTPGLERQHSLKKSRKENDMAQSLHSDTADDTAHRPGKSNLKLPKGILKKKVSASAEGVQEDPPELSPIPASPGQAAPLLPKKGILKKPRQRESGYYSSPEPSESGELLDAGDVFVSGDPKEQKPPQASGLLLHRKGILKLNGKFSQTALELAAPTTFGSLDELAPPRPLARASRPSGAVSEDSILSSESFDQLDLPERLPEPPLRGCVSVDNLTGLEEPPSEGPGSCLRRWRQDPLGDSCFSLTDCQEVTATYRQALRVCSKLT

With `CN(C(=O)CN1CCOCC1)c1ccc2sc3c(-c4cccc5c(=O)cc(N6CC7CCC(C6)O7)oc45)cccc3c2c1` [NU5455] the “% displacement” value was 1.0%.
